According to patent US20250248979A1, “NOVEL GPX4 INHIBITORS AND USES THEREOF” (THE TRUSTEES OF COLUMBIA UNIVERSITY IN THE CITY OF NEW YORK, priority 2022, published 2025):
Positions count from the first letter of the chain named. In brackets after ≈: the same amount, converted by molar mass. Where two headings read alike, the source gives them in different places.

Legend:
[1] = test system: Salmonella typhimurium TA98, TA100, TA1535, TA1537
GPX4^U46C = target: T1, GPX4^U46C (Homo sapiens, UniProt P36969, U73C); experiment: Microscale thermophoresis (MST) binding; details: half maximal effective concentration, covalent mechanism
T1 construct: made in house; host or cells: E. coli BL21-Gold (DE3)
T1 sequence (P36969 1-170 isoform P36969-2 U46C): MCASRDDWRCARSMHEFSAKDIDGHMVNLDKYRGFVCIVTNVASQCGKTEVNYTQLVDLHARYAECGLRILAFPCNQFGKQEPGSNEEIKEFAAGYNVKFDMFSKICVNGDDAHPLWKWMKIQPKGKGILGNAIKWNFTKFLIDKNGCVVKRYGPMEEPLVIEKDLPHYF
Procedure: The bacterial expression vector pET-15b-His-tagged-c-GPX4^U46C was prepared as previously described (Yang et al. 2016). The C-terminal His-tagged GPX4U46C protein was expressed in E. coli and purified according to a protocol modified from Scheerer et al. 2007. First, pET-15b-His-tagged-c-GPX4^U46C was transformed into XL10-Gold (Agilent #200314) E. coli ultracompetent cells for plasmid DNA production and isolated using QIAprep Spin Miniprep Kit (Qiagen). For protein expression, pET-15b-His-tagged-c-GPX4^U46C was then transformed into BL21-Gold (DE3) E. coli competent cells (Agilent #230132) and plated on LB agar with 100 μg/mL ampicillin. A starter culture was inoculated in 7 mL of LB medium with 100 μg/mL ampicillin using a single colony and allowed to grow in a 37° C. shaker (225 rpm) for 16 hours. 3 mL of the starter culture was added to 1 L of LB medium with 100 μg/mL ampicillin, which was then incubated in a 37° C. shaker (225 rpm) to an OD600 of 0.9. At that point, the incubation temperature was reduced to 15° C. and the culture was allowed to equilibrate for 1 hour. Expression of the recombinant enzyme was induced by addition of isopropyl β-D-1-thiogalactopyranoside (IPTG, 1 mM final concentration) overnight for 12-15 hours shaking at 225 rpm and 15° C. The next morning, cells were harvested by centrifugation at 4000 rpm and 4° C. for 20 minutes. The cell pellet was then frozen at −80° C. for at least 1 hour or until lysis. To lyse the cells, the cell pellet was resuspended with 25 mL of chilled lysis buffer (100 mM Tris pH 8.0, 300 mM NaCl, 20 mM imidazole, 3 mM TCEP, and 2.5 mini tablets of complete Protease Inhibitor Cocktail (Roche-Sigma #11836170001)) then lysed using an Emulsiflex C3 high-pressure homogenizer. To remove cell debris, the lysate was subjected to centrifugation at 10000 rpm and 4° C. for 20 minutes. The supernatant was centrifuged once more at the same conditions, then the clarified lysate was applied onto a 5-mL HisTrap HP column (Cytiva #17-5248-01), washed with 90% Buffer A (100 mM Tris pH 8.0, 300 mM NaCl, 5% glycerol, 3 mM TCEP) 10% Buffer B (Buffer A with 500 mM imidazole), then eluted with a continuous gradient (10-100% Buffer B). The protein was concentrated using Amicon Ultra-15 centrifugal filter units with a 10 kDa molecule weight cutoff (EMD Millipore #UFC901024) then further purified by FPLC on a size exclusion HiLoad Superdex 200 column (Cytiva) in crystallization buffer (20 mM Tris pH 8.0, 300 mM NaCl, 3 mM TCEP). The fractions containing 90-95% pure GPX4 protein, as evaluated by SDS-PAGE, were pooled and concentrated using the same Amicon centrifugal filter units as above to 5 mg/mL. Concentration was determined by Nanodrop. Protein was aliquoted into Eppendorf tubes, flash frozen using liquid nitrogen, and stored at −80° C. until use.
MST experiments were conducted using a Monolith NT.115 (Nanotemper Technologies) according to manufacturer instructions. To label the protein, 90 μL of 200 nM GPX4^U46C was combined with 90 μL of 100 nM RED-tris-NTA dye diluted in PBS buffer with 0.05% Tween 20 (PBST buffer). The mixture was incubated for 30 minutes at room temperature, followed by centrifugation for 10 minutes at 4° C. and 15,000×g. To assess binding of the compounds, a 16-point 2-fold dilution series in PBST buffer was prepared and mixed in a 1:1 ratio with the labeled protein solution for a final volume of 20 μL. The reaction mixture was loaded into standard treated capillary tubes and analyzed with the Monolith NT.115 at 40% LED power and 40% MST power with a laser-on time of 5 seconds. The data were analyzed in MO.Affinity Analysis v2.3 software.

GPX4 = target: T2, GPX4 (Homo sapiens, UniProt P36969); experiment: GPX4 activity assay in cell lysates (NADPH-coupled); assay type: biochemical; set-up: endogenous in cells; host or cells: A-673 cell lysate; details: for GPX4% inhibition at 200 (μM): generation 1, mean ± s.d., n = 3
T2 sequence (P36969 1-170 isoform P36969-2): T1 sequence (P36969 1-170 isoform P36969-2 U46C) with C46U
Summary of the method: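 Native GPX4 in lysates of A-673 cells grown with 20 nM sodium selenite; lysate preincubated with compound 45 min at 37 °C in pH 8.0 buffer with 3 mM GSH, 0.5 mM NADPH and glutathione reductase. Reaction started with phosphatidylcholine hydroperoxide; NADPH consumption followed at 340 nm over 25 min; triplicates.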

[2] = Kinetic aqueous solubility; details: aqueous solubility; Table 9
[3] = not given; remark: listed apart in the source
in vitro [4] = assay type: in vitro ADME, human; details: human, microsomes
Procedure: (§1) […]. The incubation timepoints measured were 0, 5, 10, 15, 30, and 45 minutes. All samples were prepared in duplicate and analyzed by LC-MS/MS.

in vitro [5] = assay type: in vitro ADME, mouse; details: mouse, microsomes
Procedure: as §1

HT-1080 cells = experiment: Cellular dose response assay, HT-1080 with and without Fer-1; assay type: cell-based, human
Summary of the method: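 Viability is measured with CellTiter-Glo after cells plated at 1500 per well the previous day receive a 12-point, 2-fold dilution series for 48 h. DMSO is kept at 0.4% in every well, and HT-1080 is tested both with and without Fer-1.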

Compound: CN(N=O)C(=O)N[C@H]1C(O)O[C@H](CO)[C@@H](O)[C@@H]1O (mixture of isomers) [Streptozotocin]
- Positive Significance (− to +++) TA98 − S9 ([1]; 2.5 μM): + (Weak positive, if p < 0.05)
- Positive Significance (− to +++) TA100 + S9 ([1]; 2.5 μM): +++ (Very strong positive, if p < 0.001)
- Positive Significance (− to +++) TA100 − S9 ([1]; TA100, − S9, 2.5 μM): +++ (Very strong positive, if p < 0.001)
- Positive Significance (− to +++) TA1535 + S9 ([1]; 2.5 μM): +++ (Very strong positive, if p < 0.001)
- Positive Significance (− to +++) TA1535 − S9 ([1]; TA1535, − S9, 2.5 μM): +++ (Very strong positive, if p < 0.001)

Compound: Nc1ccc2cc3ccccc3cc2c1 [Compound 2-Aminoanthracene, 2-Aminoanthracene]
- Positive Significance (− to +++) TA98 + S9 ([1]; 1 μM): +++ (Very strong positive, if p < 0.001)
- Positive Significance (− to +++) TA100 + S9 ([1]; 1 μM): +++ (Very strong positive, if p < 0.001)
- Positive Significance (− to +++) TA1535 + S9 ([1]; 1 μM): ++ (Strong positive, if p < 0.01)
- Positive Significance (− to +++) TA1537 + S9 ([1]; 1 μM): +++ (Very strong positive, if p < 0.001)

Compound: O=[N+]([O-])c1ccc2c(c1)Cc1ccccc1-2 [Compound 2-Nitrofluorene, 2-Nitrofluorene]
- Positive Significance (− to +++) TA98 + S9 ([1]; 30 μM): +++ (Very strong positive, if p < 0.001)
- Positive Significance (− to +++) TA98 − S9 ([1]; 30 μM): +++ (Very strong positive, if p < 0.001)

Compound: Nc1c2ccccc2nc2ccccc12 [Compound 9-Aminoacridine, 9-Aminoacridine]
- Positive Significance (− to +++) TA1537 + S9 ([1]; 10 μM): ++ (Strong positive, if p < 0.01)
- Positive Significance (− to +++) TA1537 − S9 ([1]; TA1537, − S9, 10 μM): +++ (Very strong positive, if p < 0.001)

Compound: COc1cccc2[nH]c(C(=O)NC(C)(C)COC(=O)CCl)cc12 [QW-144]
- EC50 (GPX4^U46C): 836 nM
- GPX4% inhibition at 200 (μM) (GPX4): 50.0 ± 32.5%

Compound: Cc1ccc2[nH]c(C(=O)NC(C)(C)COC(=O)CCl)cc2c1 [QW-155]
- EC50 (GPX4^U46C): 473000 nM
- GPX4% inhibition at 200 (μM) (GPX4): 50.9 ± 3.6%

Compound: CC(C)(COC(=O)CCl)NC(=O)c1cc2cc(Cl)ccc2[nH]1 [QW-164]
- EC50 (GPX4^U46C): 2100 nM
- GPX4% inhibition at 200 (μM) (GPX4): 53.3 ± 37.8%

Compound: CC(C)Oc1ccc(-c2ccc3c(C(=O)NC(C)(C)COC(=O)CCl)nn(C)c3c2)cc1Cl [QW-550]
- GPX4% inhibition at 5 μM (GPX4): 91.5 ± 2.2%
- Solubility [2]: 7.8 µM (≈ 3.84 µg/mL)
- Plasma Stability t1/2 (min) mouse: 12.5 min
- Plasma Stability t1/2 (min) human [3]: 73.2 min
- Microsome Stability t1/2 (min) human (in vitro [4]): 49 min
- Microsome Stability t1/2 (min) mouse (in vitro [5]): 25 min

Compound: Cn1nc(C(=O)NC(C)(C)COC(=O)CCl)c2ccc(-c3ccc(Oc4ccccc4)c(Cl)c3)cc21 [QW-561]
- GPX4% inhibition at 5 μM (GPX4): 87.6 ± 2.8%
- Solubility [2]: 15.6 µM (≈ 8.21 µg/mL)
- Plasma Stability t1/2 (min) mouse: 23.9 min
- Plasma Stability t1/2 (min) human [3]: 116 min
- Microsome Stability t1/2 (min) human (in vitro [4]): 12 min
- Microsome Stability t1/2 (min) mouse (in vitro [5]): 24 min

Compound: Cn1nc(C(=O)NC(C)(C)COC(=O)CCl)c2ccc(-c3ccc(Cl)c(Cl)c3)cc21 [QW-570]
- GPX4% inhibition at 5 μM (GPX4): 80.7 ± 14.8%
- Solubility [2]: 15.6 µM (≈ 7.31 µg/mL)
- Plasma Stability t1/2 (min) mouse: 16.9 min
- Plasma Stability t1/2 (min) human [3]: 56.7 min
- Microsome Stability t1/2 (min) human (in vitro [4]): 22 min
- Microsome Stability t1/2 (min) mouse (in vitro [5]): 15 min

Compound: Cn1nc(C(=O)NC(C)(C)COC(=O)CCl)c2ccc(-c3ccc4c(c3)OCO4)cc21 [QW-594]
- GPX4 inhibitory activity, result in words (GPX4): comparable to that of QW-446
- GPX4% inhibition at 2.5 μM (GPX4; 2.5 μM): 71.5 ± 3.0%
- GPX4 inhibition rate (GPX4; concentration not given): 75%
- Solubility [2]: 1.0 µM (≈ 0.444 µg/mL)
- Selectivity (HT-1080 cells): 3.3
- IC50 (HT-1080 cells; HT1080 + Fer-1, read-out: IC50 (uM) HT1080 + Fer-1): 8.8 µM
- IC50 (HT-1080 cells; HT1080, without Fer-1, read-out: IC50 (uM) HT1080): 2.7 µM
- Plasma Stability t1/2 (min) mouse: 17.0 min
- half-life in mouse plasma: 17 min
- Plasma Stability t1/2 (min) human [3]: 6.6 min
- Microsome Stability t1/2 (min) human (in vitro [4]): 250 min
- Microsome Stability t1/2 (min) mouse (in vitro [5]): 137 min
- unbound clearance rate (in vitro [5]): 0.085 µL/min/mg
